Reference: article PMC10492212 (Journal of Ayurveda and Integrative Medicine, 2023)
≈ marks a conversion by molar mass, not a printed value.

Biological target: intestinal α-glucosidase
Experiment: sucrose hydrolysis, glucose oxidase-peroxidase, absorbance […] nm
Type: biochemical
Conditions: phosphate buffer pH 7.5, 20 min pre-incubation at 37 °C

- IC50: 52.5 ± 2.67 µg/mL (≈ 81.3 µM)
Compound: C[C@H]1O[C@H](O[C@H]2[C@H](O)[C@@H](O)[C@@H](O[C@H]3[C@H](O)[C@@H](O)C(O)O[C@@H]3CO)O[C@@H]2CO)[C@H](O)[C@@H](O)[C@@H]1N[C@H]1C=C(CO)[C@@H](O)[C@H](O)[C@H]1O (stereo partly shown) [acarbose]
